Source: patent US10196386B2, “Compounds having muscarinic receptor antagonist and beta2 adrenergic receptor agonist activity” (priority 2016, dated 2019)

Legend:
Human β2 adrenoceptor = target: T1, Human β2 adrenoceptor (Homo sapiens, UniProt P07550); test: β2 adrenoceptor radioligand binding assay
T1 construct: purchased Perkin Elmer
Procedure, shortened: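 Human β2 receptor membranes incubated 1 h at room temperature with 0.3 nM [125I]cyanopindolol and compound in pH 7.4 HEPES buffer (0.5% DMSO); 2 μM s-propranolol defined non-specific binding. Bound label counted after filtration; IC50 from competition curves, converted to Ki via Cheng–Prusoff.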

Human M3 receptor = target: T2, Human M3 receptor (Homo sapiens, UniProt P20309); test: biochemical; assay type: binding; settings: read-out: M3 Range
T2 construct: purchased Perkin Elmer
T2 sequence (P20309 whole entry): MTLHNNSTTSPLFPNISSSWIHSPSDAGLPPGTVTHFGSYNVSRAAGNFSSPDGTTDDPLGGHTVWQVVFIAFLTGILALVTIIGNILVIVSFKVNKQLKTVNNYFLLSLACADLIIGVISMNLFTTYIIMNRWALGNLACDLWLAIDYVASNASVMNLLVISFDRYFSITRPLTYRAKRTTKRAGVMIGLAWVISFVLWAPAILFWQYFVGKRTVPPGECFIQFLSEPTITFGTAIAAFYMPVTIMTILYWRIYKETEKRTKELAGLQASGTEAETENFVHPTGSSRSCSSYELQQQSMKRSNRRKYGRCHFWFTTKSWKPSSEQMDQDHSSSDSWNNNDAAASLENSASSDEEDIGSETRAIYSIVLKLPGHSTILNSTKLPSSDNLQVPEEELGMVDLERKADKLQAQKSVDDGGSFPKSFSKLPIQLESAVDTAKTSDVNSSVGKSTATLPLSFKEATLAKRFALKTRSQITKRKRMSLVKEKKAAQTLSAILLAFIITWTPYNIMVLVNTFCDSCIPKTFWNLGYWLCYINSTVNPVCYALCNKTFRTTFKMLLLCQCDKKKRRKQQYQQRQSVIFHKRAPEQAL

T1 sequence (P07550 whole entry): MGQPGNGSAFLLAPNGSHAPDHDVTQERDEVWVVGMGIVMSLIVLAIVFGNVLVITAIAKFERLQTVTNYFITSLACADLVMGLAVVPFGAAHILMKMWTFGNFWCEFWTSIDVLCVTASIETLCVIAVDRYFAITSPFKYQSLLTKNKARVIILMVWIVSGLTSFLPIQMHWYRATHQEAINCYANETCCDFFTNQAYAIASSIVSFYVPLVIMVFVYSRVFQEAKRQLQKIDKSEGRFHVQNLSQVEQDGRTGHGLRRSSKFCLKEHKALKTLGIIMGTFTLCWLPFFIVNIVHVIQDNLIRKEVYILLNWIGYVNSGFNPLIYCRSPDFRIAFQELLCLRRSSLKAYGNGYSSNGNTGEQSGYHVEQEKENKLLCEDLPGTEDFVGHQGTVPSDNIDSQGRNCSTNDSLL

| SMILES | IC50 (Human β2 adrenoceptor) [nM] | IC50 (Human M3 receptor) [nM] |
| --- | --- | --- |
| O=C(NCC(=O)N1CC=C(c2cccc([C@](O)(C(=O)OCC3CCN(Cc4ccccc4)CC3)c3ccccc3)c2)CC1)c1ccc(CNC[C@H](O)c2ccc(O)c3[nH]c(=O)ccc23)cc1 [Compound 8D, (1-Benzylpiperidin-4-yl)methyl (S)-2-hydroxy-2-(3-(1-((4-((((R)-2-hydroxy-2-(8-hydroxy-2-oxo-1,2-dihydroquinolin-5-yl)ethyl)amino)methyl)-benzoyl)glycyl)-1,2,3,6-tetrahydropyridin-4-yl)phenyl)-2-phenylacetate] | < 0.3 | 0.3 to 3 |
| COc1cc(C(=O)NCC(=O)N2CC=C(c3cccc([C@](O)(C(=O)OCC4CCN(Cc5ccccc5)CC4)c4ccccc4)c3)CC2)ccc1CNC[C@H](O)c1ccc(O)c2[nH]c(=O)ccc12 [Compound 8E, (1-Benzylpiperidin-4-yl)methyl (S)-2-hydroxy-2-(3-(1-((4-((((R)-2-hydroxy-2-(8-hydroxy-2-oxo-1,2-dihydroquinolin-5-yl)ethyl)amino)methyl)-3-methoxybenzoyl)glycyl)-1,2,3,6-tetrahydropyridin-4-yl)phenyl)-2-phenylacetate] | < 0.3 | 0.3 to 3 |
| CN(CC(=O)N1CC=C(c2cccc([C@](O)(C(=O)OCC3CCN(Cc4ccccc4)CC3)c3ccccc3)c2)CC1)C(=O)c1ccc(CNC[C@H](O)c2ccc(O)c3[nH]c(=O)ccc23)cc1 [Compound 8F, (1-Benzylpiperidin-4-yl)methyl (S)-2-hydroxy-2-(3-(1-(N-(4-((((R)-2-hydroxy-2-(8-hydroxy-2-oxo-1,2-dihydroquinolin-5-yl)ethyl)amino)-methyl)benzoyl)-N-methylglycyl)-1,2,3,6-tetrahydropyridin-4-yl)phenyl)-2-phenylacetate] | 0.3 to 3 | 0.3 to 3 |
| O=C(NCCCNC[C@H](O)c1ccc(O)c2[nH]c(=O)ccc12)c1cncc(-c2cccc([C@](O)(C(=O)OCC3CCN(Cc4ccccc4)CC3)c3ccccc3)c2)n1 [Compound 10, (1-Benzylpiperidin-4-yl)methyl (S)-2-hydroxy-2-(3-(6-((3-(((R)-2-hydroxy-2-(8-hydroxy-2-oxo-1,2-dihydroquinolin-5-yl)ethyl)amino)propyl)carbamoyl)pyrazin-2-yl)phenyl)-2-phenylacetate] | 0.3 to 3 | 0.3 to 3 |
| COc1cc(C(=O)NCc2ccc(-c3cccc([C@](O)(C(=O)OCC4(C)CCN(Cc5ccccc5)CC4)c4ccccc4)c3)s2)c(Cl)cc1CNC[C@H](O)c1ccc(O)c2[nH]c(=O)ccc12 [Compound 11, (1-Benzyl-4-methylpiperidin-4-yl)methyl (S)-2-(3-(5-((2-chloro-4-((((R)-2-hydroxy-2-(8-hydroxy-2-oxo-1,2-dihydroquinolin-5-yl)ethyl)amino)methyl)-5-methoxybenzamido)methyl)thiophen-2-yl)phenyl)-2-hydroxy-2-phenylacetate] | < 0.3 | 0.3 to 3 |
| O=C1c2ccc(CNC[C@H](O)c3ccc(O)c4[nH]c(=O)ccc34)cc2C(=O)N1Cc1ccc(-c2cccc([C@](O)(C(=O)OCC3CCN(Cc4ccccc4)CC3)c3ccccc3)c2)s1 [Compound 12, (1-Benzylpiperidin-4-yl)methyl (S)-2-hydroxy-2-(3-(5-((5-((((R)-2-hydroxy-2-(8-hydroxy-2-oxo-1,2-dihydroquinolin-5-yl)ethyl)amino)methyl)-1,3-dioxoisoindolin-2-yl)methyl)thiophen-2-yl)phenyl)-2-phenylacetate] | 0.3 to 3 | 0.3 to 3 |
| O=C(NCC(=O)N1CCC(c2cccc([C@](O)(C(=O)OCC3CCN(Cc4ccccc4)CC3)c3ccccc3)c2)CC1)c1ccc(CCNC[C@H](O)c2ccc(O)c3[nH]c(=O)ccc23)cc1 [Compound 13, (1-Benzylpiperidin-4-yl)methyl (S)-2-hydroxy-2-(3-(1-((4-(2-(((R)-2-hydroxy-2-(8-hydroxy-2-oxo-1,2-dihydroquinolin-5-yl)ethyl)amino)ethyl)benzoyl)-glycyl)piperidin-4-yl)phenyl)-2-phenylacetate] | < 0.3 | 0.3 to 3 |
| Cn1nc(C(=O)NCc2ccc(CNC[C@H](O)c3ccc(O)c4[nH]c(=O)ccc34)cc2)cc1-c1cccc([C@](O)(C(=O)OCC2CCN(Cc3ccccc3)CC2)c2ccccc2)c1 [Compound 14, (1-Benzylpiperidin-4-yl)methyl (S)-2-hydroxy-2-(3-(3-((4-((((R)-2-hydroxy-2-(8-hydroxy-2-oxo-1,2-dihydroquinolin-5-yl)ethyl)amino)methyl)-benzyl)carbamoyl)-1-methyl-1H-pyrazol-5-yl)phenyl)-2-phenylacetate] | 0.3 to 3 | 0.3 to 3 |
| O=C(NCc1ccc(-c2ccc([C@](O)(C(=O)OCC3CCN(Cc4ccccc4)CC3)c3ccccc3)cc2)s1)c1ccc(CNC[C@H](O)c2ccc(O)c3[nH]c(=O)ccc23)cc1 [Compound 15, (1-benzylpiperidin-4-yl)methyl (S)-2-hydroxy-2-(4-(5-((4-((((R)-2-hydroxy-2-(8-hydroxy-2-oxo-1,2-dihydroquinolin-5-yl)ethyl)amino)methyl)benzamido)methyl)-thiophen-2-yl)phenyl)-2-phenylacetate×2 HCOOH] | < 0.3 | 0.3 to 3 |
| COc1cc(C(=O)NCc2ccc(-c3ccc([C@](O)(C(=O)OCC4CCN(Cc5ccccc5)CC4)c4ccccc4)cc3)s2)ccc1CNC[C@H](O)c1ccc(O)c2[nH]c(=O)ccc12 [Compound 15A, (1-benzylpiperidin-4-yl)methyl (S)-2-hydroxy-2-(4-(5-((4-((((R)-2-hydroxy-2-(8-hydroxy-2-oxo-1,2-dihydroquinolin-5-yl)ethyl)amino)methyl)-3-methoxybenzamido)methyl)thiophen-2-yl)phenyl)-2-phenylacetate] | < 0.3 | 0.3 to 3 |
| O=C(NCc1cc(-c2ccc([C@](O)(C(=O)OCC3CCN(Cc4ccccc4)CC3)c3ccccc3)cc2)cs1)c1ccc(CNC[C@H](O)c2ccc(O)c3[nH]c(=O)ccc23)cc1 [Compound 15B, (1-benzylpiperidin-4-yl)methyl (S)-2-hydroxy-2-(4-(5-((4-((((R)-2-hydroxy-2-(8-hydroxy-2-oxo-1,2-dihydroquinolin-5-yl)ethyl)amino)methyl)-benzamido)methyl)thiophen-3-yl)phenyl)-2-phenylacetate] | 0.3 to 3 | > 3 |
| O=C(NCc1cnc(-c2ccc([C@](O)(C(=O)OCC3CCN(Cc4ccccc4)CC3)c3ccccc3)cc2)s1)c1ccc(CNC[C@H](O)c2ccc(O)c3[nH]c(=O)ccc23)cc1 [Compound 15C, (1-benzylpiperidin-4-yl)methyl (S)-2-hydroxy-2-(4-(5-((4-((((R)-2-hydroxy-2-(8-hydroxy-2-oxo-1,2-dihydroquinolin-5-yl)ethyl)amino)methyl)-benzamido)methyl)thiazol-2-yl)phenyl)-2-phenylacetate] | < 0.3 | 0.3 to 3 |
| O=C(NCc1ccc(-c2ccc([C@](O)(C(=O)OCC3CCN(Cc4ccccc4)CC3)c3ccccc3)cc2)cn1)c1ccc(CNC[C@H](O)c2ccc(O)c3[nH]c(=O)ccc23)cc1 [Compound 15D, (1-benzylpiperidin-4-yl)methyl (S)-2-hydroxy-2-(4-(6-((4-((((R)-2-hydroxy-2-(8-hydroxy-2-oxo-1,2-dihydroquinolin-5-yl)ethyl)amino)methyl)-benzamido)methyl)pyridin-3-yl)phenyl)-2-phenylacetate] | < 0.3 | 0.3 to 3 |
